Article PMC8280112, “Substrate reduction therapy for Krabbe disease and metachromatic leukodystrophy using a novel ceramide galactosyltransferase inhibitor” (Scientific Reports, 2021)

Legend:
[1] = tested on: sulfatide and lysosulfatide levels; test: ARSA knockout (MLD) mouse brain sulfatide and lysosulfatide analysis; type: in vivo; settings: MLD (ARSA knockout) mice, IP three times per week
Procedure: ARSA mice were obtained from Volkmar Gieselmann, University of Bonn. ARSA −/− mice were generated from heterozygous pairing and confirmed by PCR genotyping. […] Animals were euthanized by exsanguination under deep anesthesia and brain and sciatic nerve removed, rinsed in cold saline, dried, and snap frozen for lipid quantification.
Previously diluted brain homogenate was serially diluted (10 µL into 90 µL and then 20 µL into 80 µL) in ACN/H2O (v/v 1:1) before being added to 300 µL ACN with IS (N-C18:0-CD3-sulfatide, Matreya). The mixture was vortexed for 10 min, centrifuged at 5800 rpm for 10 min, and then 3 µL of supernatant was injected for LC–MS/MS analysis. Sulfatides were separated on an ACE 5 C18 (2.1 × 50 mm, 5 µm) column (0.6 mL/min flow rate) at 60 °C using mobile phase A (H2O-5 mM NH4OAc) and mobile phase B (ACN). Non-hydroxy-sulfatide and 2-hydroxy-sulfatide were detected using MRM on a UPLC-MS/MS-22 (Triple Quad 6500) in positive ESI mode. Total sulfatides (Matreya) were used as reference standards. The non-hydroxy-sulfatide or 2-hydroxy-sulfatide species identified in the reference standards were each summed and normalized relative to the vehicle treated animals.
Sulfatides were quantified using the methods described above. For lysosulfatide, 30 µL of brain homogenates were added to 200 µL ACN with IS (N-acetylsulfatide, Matreya), vortexed for 10 min, and centrifuged at 5800 rpm for 10 min. 3 µL of supernatant was injected for LC–MS/MS analysis. UPLC–MS/MS methods were the same used for sulfatides described above except lysosulfatide (Matreya) was used as a reference standard.

[2] = biological target: T1, Recombinant human glucosylceramidase (GBA1) (Homo sapiens, UniProt P04062); test: Beta-glucocerebrosidase assay; type: biochemical
T1 construct: purchased R&D Systems
T1 sequence (P04062 40-536): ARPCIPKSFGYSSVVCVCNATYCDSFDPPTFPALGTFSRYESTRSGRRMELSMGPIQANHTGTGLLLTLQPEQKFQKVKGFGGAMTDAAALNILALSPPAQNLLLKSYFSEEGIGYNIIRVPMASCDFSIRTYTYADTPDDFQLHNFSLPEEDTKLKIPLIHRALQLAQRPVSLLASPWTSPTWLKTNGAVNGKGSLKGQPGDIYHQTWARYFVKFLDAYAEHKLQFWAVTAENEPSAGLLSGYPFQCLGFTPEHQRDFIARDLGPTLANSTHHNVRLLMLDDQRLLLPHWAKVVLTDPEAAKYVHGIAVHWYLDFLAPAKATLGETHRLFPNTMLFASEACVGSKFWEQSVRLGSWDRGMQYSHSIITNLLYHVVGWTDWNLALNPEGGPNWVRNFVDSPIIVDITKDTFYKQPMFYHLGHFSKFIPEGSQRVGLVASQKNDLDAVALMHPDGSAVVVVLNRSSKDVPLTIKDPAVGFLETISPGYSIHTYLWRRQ

[3] = tested on: wild-type mice; test: PND15 wild-type mice tolerability study: blood chemistry and hematology; type: in vivo, mouse; settings: PND15-PND70, Avg
Procedure: Maximum obtainable terminal blood collection was taken via cardiac puncture and split. 200 µL into clot-activating tubes for serum processing and the following chemistry panel: AST, ALT, CKMB and electrolytes. 220 µL stored on wet ice and used for CBC.
Animals were euthanized with CO2 followed by cardiac puncture. Blood was collected via cardiac puncture and split for blood chemistry and hematology.

[4] = 2.3 mg/kg IP three times per week
[5] = 5.4 mg/kg IP three times per week

With C[C@H]1N(c2ccc(Br)cc2)C(=O)N(c2ccc(Br)cc2)C1(O)c1cccc(OC(F)(F)F)c1 (some centres unmarked) [S202] the 2-hydroxy-sulfatides in brain ([1]; higher doses) was “reduced”, the lysosulfatide in brain ([1]; lower doses) was “reduction” and the non-hydroxy-sulfatide in brain ([1]; lower doses) was “reduction”. The IC50 [2] was > 50 µM, the “#BASO” value [3, 4] was 0.02 10^3cells/µL and the “#EOS” value [3, 4] was 0.14 10^3cells/µL. The “#LUC” value [3, 4] was 0.11 10^3cells/µL, the “#LYMPH” value [3, 4] was 4.3 10^3cells/µL and the “#MONO” value [3, 4] was 0.12 10^3cells/µL. The “#NEUT” value [3, 4] was 0.8 10^3cells/µL, the “#RETIC” value [3, 4] was 291 10^9cells/L and the “%BASO” value [3, 4] was 0.4%. The “%EOS” value [3, 4] was 2.4%, the “%LUC” value [3, 4] was 2% and the “%LYMPH” value [3, 4] was 78.8%. For the same molecule, the “%MONO” value [3, 4] was 2.3%, the “%NEUT” value [3, 4] was 14.3% and the “%RETIC” value [3, 4] was 2.9%. The ALT [3, 4] was 257.2 IU/L, the AST [3, 4] was 283.5 IU/L and the CH [3, 4] was 13.3 pg. For the same molecule, the CHCM [3, 4] was 27.5 g/dL, the CHR [3, 4] was 14.6 pg and the CHm [3, 4] was 14 pg. It also gave a CKMB [3, 4] of 250.5 U/L, a CL [3, 4] of 109.4 mmol/L and an HCT [3, 4] of 47.9%. It also gave an HDW [3, 4] of 1.9 g/dL, an HGB [3, 4] of 15.3 g/dL and an HGBCell [3, 4] of 13.2 g/dL. The K [3, 4] was 10.5 mmol/L, the MCH [3, 4] was 15.4 pg and the MCHC [3, 4] was 31.9 g/dL. It also gave an MCV [3, 4] of 48.2 fL, an MPM [3, 4] of 1.3 pg and an MPV [3, 4] of 5.4 fL. The NA [3, 4] was 148 mmol/L, the PDW [3, 4] was 37.1% and the PLT [3, 4] was 1.02e+06 µL⁻¹. The RBC [3, 4] was 9.9e+06 µL⁻¹, the RDW [3, 4] was 12.2% and the WBC [3, 4] was 5500 µL⁻¹. For the same molecule, the “#BASO” value [3, 5] was 0.013 10^3cells/µL, the “#EOS” value [3, 5] was 0.4 10^3cells/µL and the “#LUC” value [3, 5] was 0.047 10^3cells/µL. For the same molecule, the “#LYMPH” value [3, 5] was 3.8 10^3cells/µL, the “#MONO” value [3, 5] was 0.08 10^3cells/µL and the “#NEUT” value [3, 5] was 0.55 10^3cells/µL. The “#RETIC” value [3, 5] was 285 10^9cells/L, the “%BASO” value [3, 5] was 0.35% and the “%EOS” value [3, 5] was 8.2%. The “%LUC” value [3, 5] was 0.9%, the “%LYMPH” value [3, 5] was 77.6% and the “%MONO” value [3, 5] was 1.6%. For the same molecule, the “%NEUT” value [3, 5] was 11.4%, the “%RETIC” value [3, 5] was 2.7% and the ALT [3, 5] was 99.5 IU/L. The AST [3, 5] was 132.8 IU/L, the CH [3, 5] was 13.1 pg and the CHCM [3, 5] was 27.3 g/dL. The CHR [3, 5] was 14.6 pg, the CHm [3, 5] was 13.8 pg and the CKMB [3, 5] was 126.4 U/L. It also gave a CL [3, 5] of 111.3 mmol/L, an HCT [3, 5] of 50.1% and an HDW [3, 5] of 1.93 g/dL. The HGB [3, 5] was 15.9 g/dL, the HGBCell [3, 5] was 13.7 g/dL and the K [3, 5] was 9.6 mmol/L. The MCH [3, 5] was 15.3 pg, the MCHC [3, 5] was 31.8 g/dL and the MCV [3, 5] was 48.1 fL. The MPM [3, 5] was 1.3 pg, the MPV [3, 5] was 5.82 fL and the NA [3, 5] was 150.9 mmol/L. The PDW [3, 5] was 46.63%, the PLT [3, 5] was 737200 µL⁻¹ and the RBC [3, 5] was 1.04e+07 µL⁻¹. It also gave an RDW [3, 5] of 11.8% and a WBC [3, 5] of 4900 µL⁻¹.
